Reference: ChEMBL document CHEMBL1136170, “5-aryl thiazolidine-2,4-diones: discovery of PPAR dual alpha/gamma agonists as antidiabetic agents” (Bioorg Med Chem Lett, 2003)

Key:
[1] = molecular target: T1, Peroxisome proliferator-activated receptor alpha (Homo sapiens, UniProt Q07869); assay: In vitro binding affinity against human Peroxisome proliferator activated receptor alpha
T1 sequence (Q07869 whole entry): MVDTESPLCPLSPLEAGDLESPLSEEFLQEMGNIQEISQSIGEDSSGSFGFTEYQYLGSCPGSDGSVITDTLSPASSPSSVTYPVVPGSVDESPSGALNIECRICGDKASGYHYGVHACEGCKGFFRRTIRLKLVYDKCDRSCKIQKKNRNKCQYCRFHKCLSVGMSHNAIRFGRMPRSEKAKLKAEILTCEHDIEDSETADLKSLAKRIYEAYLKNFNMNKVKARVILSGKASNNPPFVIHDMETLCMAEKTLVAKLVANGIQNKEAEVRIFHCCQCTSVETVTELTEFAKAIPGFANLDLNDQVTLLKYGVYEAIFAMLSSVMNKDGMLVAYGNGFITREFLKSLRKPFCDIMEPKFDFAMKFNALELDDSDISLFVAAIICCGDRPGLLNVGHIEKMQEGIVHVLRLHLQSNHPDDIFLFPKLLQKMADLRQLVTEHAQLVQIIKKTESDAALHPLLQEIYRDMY

[2] = Plasma clearance in fasted male Sprague dawely rats on administration of 0.5 mg/Kg i.v. of the compound; assay type: ADME, organism-based; settings: Sprague-Dawley, rat, iv, read-out: Clp
Mus musculus [3] = assay: In vivo efficacy as percent triglyceride correction in male db/db mice at 10 mg/kg oral dose; assay type: functional
[4] = Oral bioavailability in rat (Sprague-Dawley) (fasted male) (dose 2 mg/kg); assay type: ADME, organism-based; settings: in vivo
[5] = molecular target: T2, Peroxisome proliferator-activated receptor delta (Homo sapiens, UniProt Q03181)
T2 sequence (Q03181 whole entry): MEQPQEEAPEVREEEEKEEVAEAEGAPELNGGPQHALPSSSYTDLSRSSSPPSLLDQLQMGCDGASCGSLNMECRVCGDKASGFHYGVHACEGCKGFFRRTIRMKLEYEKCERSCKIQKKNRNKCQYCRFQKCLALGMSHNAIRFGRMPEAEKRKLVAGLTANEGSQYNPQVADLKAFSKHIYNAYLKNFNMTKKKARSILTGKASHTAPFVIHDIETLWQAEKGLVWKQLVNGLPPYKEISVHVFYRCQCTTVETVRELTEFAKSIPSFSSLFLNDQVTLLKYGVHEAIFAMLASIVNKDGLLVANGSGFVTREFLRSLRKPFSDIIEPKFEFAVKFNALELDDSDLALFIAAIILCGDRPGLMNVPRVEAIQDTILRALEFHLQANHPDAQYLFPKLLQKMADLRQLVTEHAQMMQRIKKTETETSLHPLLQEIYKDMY
Description: In vitro transactivation of human Peroxisome proliferator activated receptor delta measured in PPAR-GAL4 chimeric COS-1 cells

[6] = Half life was measured in fasted male administration of compound 0.5 mg/Kg i.v.; assay type: ADME, organism-based; settings: rat, in vivo, iv
[7] = molecular target: T2, Peroxisome proliferator-activated receptor delta; remark: listed apart in the source
Description: In vitro binding affinity against human Peroxisome proliferator activated receptor delta

Rattus norvegicus [8] = assay: Dose-normalized AUC measured in fasted male Sprague dawely rats when the compound was administered at a peroral dose of 2 mg/Kg; assay type: ADME, organism-based; settings: in vivo, po
Mus musculus [9] = assay: In vivo efficacy as percent glucose correction in male db/db mice at 10 mg/kg oral dose; assay type: functional
[10] = Bioavailability in fasted male administration of 2 mg/Kg of compound p.o.; assay type: ADME, organism-based; settings: rat, in vivo, po
Rattus norvegicus [11] = assay: Dose-normalized AUC measured in fasted male Sprague dawely rats when the compound was administered at a peroral of 2 mg/Kg; assay type: ADME, organism-based; settings: in vivo, po

Row | Structure (SMILES) | clearance [2] [mL/min/kg] | Triglyceride correction (Mus musculus [3]) [%] | EC50 [5] [µM] | half-life [6] [h] | IC50 [7] [µM] | nAUC (Rattus norvegicus [8]) [uMh] | Glucose correction (Mus musculus [9]) [%] | other results
1 | CCCc1cc(Oc2ccccc2)ccc1OCCCOc1ccc(C2SC(=O)NC2=O)cc1 (configuration not stated) |  |  |  |  |  |  |  | IC50 [1]: > 50 µM
2 | CCCc1cc(Oc2ccc(Cl)c(Cl)c2)ccc1OCCCOc1cccc(C2SC(=O)NC2=O)c1 (configuration not stated) | 7.9 | 77 | > 3 | 2.2 | > 50 | 0.8 | 79 | bioavailability [4]: 19%
3 | CCCc1cc(Oc2ccc(CC(C)C)cc2)ccc1OCCCOc1cccc(C2SC(=O)NC2=O)c1 (configuration not stated) |  |  |  |  | > 50 |  |  | 
4 | CCCc1cc(Oc2ccc(Cl)c(C)c2)ccc1OCCCOc1cccc(C2SC(=O)NC2=O)c1 (configuration not stated) |  |  | > 3 |  | > 50 |  |  | 
5 | CCCc1cc(Oc2ccccc2)ccc1OCCCCOc1cccc(C2SC(=O)NC2=O)c1 (configuration not stated) |  |  |  |  | 3 |  |  | 
6 | CCCc1cc(Oc2ccc(Cl)cc2)ccc1OCCCOc1cccc(C2SC(=O)NC2=O)c1 (configuration not stated) | 9.7 | 68 | > 3 | 2.9 | > 50 | 1.5 | 86 | bioavailability [4]: 44%
7 | CCCc1cc(Oc2ccc(OC)cc2)ccc1OCCCOc1cccc(C2SC(=O)NC2=O)c1 (configuration not stated) |  |  | > 3 |  | > 10 |  |  | 
8 | CCCc1cc(Oc2ccccc2)ccc1OCCCOc1cccc(C2SC(=O)NC2=O)c1 (configuration not stated) | 9.5 | 67 |  | 1.5 |  | 21.78 | 91 | bioavailability [10]: 62%
9 | CCCc1cc(Oc2ccc(O)cc2)ccc1OCCCOc1cccc(C2SC(=O)NC2=O)c1 (configuration not stated) |  |  | > 3 |  | 3.8 |  |  | 
10 | CCCc1cc(Oc2ccc(C(C)C)cc2)ccc1OCCCOc1cccc(C2SC(=O)NC2=O)c1 (configuration not stated) | 6.1 |  | > 3 | 3.3 | > 50 |  |  | nAUC (Rattus norvegicus [11]): 0.3 uMh; bioavailability [4]: 6%
11 | CCCc1cc(Oc2ccc(C(C)(C)C)cc2)ccc1OCCCOc1cccc(C2SC(=O)NC2=O)c1 (configuration not stated) |  |  |  |  | > 50 |  |  | 
12 | O=C1NC(=O)C(c2cccc(OCCCOc3ccc(Oc4ccccc4)cc3)c2)S1 (configuration not stated) |  |  |  |  | 0.19 |  |  | 
13 | CCCc1cc(Oc2ccc(F)c(C)c2)ccc1OCCCOc1cccc(C2SC(=O)NC2=O)c1 (configuration not stated) | 10.5 | 69 | > 50 | 3.3 | > 50 | 0.6 | 78 | bioavailability [4]: 20%
14 | CCCc1cc(Oc2ccc(F)cc2)ccc1OCCCOc1cccc(C2SC(=O)NC2=O)c1 (configuration not stated) | 10.2 | 76 | > 3 | 1.3 | > 5 | 3.3 | 90 | bioavailability [4]: 66%
15 | CCCc1cc(Oc2ccc(-c3ccccc3)cc2)ccc1OCCCOc1cccc(C2SC(=O)NC2=O)c1 (configuration not stated) |  |  | > 3 |  | > 50 |  |  | 
16 | CCCc1cc(Oc2ccc(C3CCCC3)cc2)ccc1OCCCOc1cccc(C2SC(=O)NC2=O)c1 (configuration not stated) |  |  | > 3 |  | > 50 |  |  | 
17 | CN(CCOc1ccc(CC2SC(=O)NC2=O)cc1)c1ccccn1 (configuration not stated) [ROSIGLITAZONE] |  | 74 |  |  |  | 16.4 | 67 | 
